The values below come from patent US10968193B2, “Antidiabetic bicyclic compounds” (Merck Sharp & Dohme Corp., priority 2014, dated 2021).

The term EC50 denotes the concentration needed to bring the measured effect to its halfway point. Read a high EC50 as a need for much substance.

T1 sequence (O14842 whole entry): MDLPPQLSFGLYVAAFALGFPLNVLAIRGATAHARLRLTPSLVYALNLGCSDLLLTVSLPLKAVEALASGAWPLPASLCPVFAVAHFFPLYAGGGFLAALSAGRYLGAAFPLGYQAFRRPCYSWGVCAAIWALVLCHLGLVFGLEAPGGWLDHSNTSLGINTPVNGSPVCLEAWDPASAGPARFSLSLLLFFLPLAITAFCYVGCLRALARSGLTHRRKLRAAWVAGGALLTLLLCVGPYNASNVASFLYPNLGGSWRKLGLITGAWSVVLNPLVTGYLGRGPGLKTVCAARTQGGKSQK

The test addresses T1, human GPR40 (Homo sapiens, UniProt O14842).
T1 construct: expressed in transfected cells; host or cells: HEK cells stably expressing the aequorin reporter
As to the kind of experiment: Inositol Phosphate Turnover (IP1) Assay 3. It counts as cell-based. To be noted: HEK cells stably expressing human GPR40. How it is done: Human and mouse GPR40 stable cell-lines were generated in CHO cells stably expressing NFAT BLA (Beta-lactamase). A human GPR40 stable cell-line was generated in HEK cells stably expressing the aequorin expressing reporter. The expression plasmids were transfected using lipofectamine (Life Technologies) following manufacturer's instructions. Stable cell-lines were generated following drug selection.
Inositol Phosphate Turnover (IP1) Assay 3:
The assay was performed in 384-well format. HEK cells stably expressing human GPR40 were plated at 7500 cells per well in growth medium (DMEM/10% fetal calf serum). Cell plates were then incubated 16 hours at 37 degrees in a 5% CO2 incubator.
Measurement of Inositol Phosphate Turnover (IP) was performed using the CisBio IP-One kit (Part number 62IPAPEB). After the 16 hour incubation, the growth media was removed by centrifugation using the BlueWasher (AusWasher GUI Ver. v1.0.1.8) Protocol #21—“Light Dry” and 10 ul of stimulation buffer (prepared as described in the kit) was added to each well. In a separate plate, compounds were diluted in DMSO (200-fold over the final concentration in the assay well) and 50 nl was acoustically transferred to the appropriate well in the assay cell plate. The plates were then incubated for 60 minutes at 37 degrees in a 5% CO2 incubator. 10 ul of detection buffer (also prepared as described in the IP-One kit) was added to each well and the plates were incubated at rt for 60 minutes in the dark. The plates were then read in a Perkin Elmer EnVision or equivalent reader able to measure FRET. Fluorescent ratio of emission at 665 and 620 nm was then converted to IP1 concentration by back calculating from an IP1 standard curve prepared at the time of the assay. Data is normalized to % activity using a reference compound and EC50s determined using a standard 4-parameter fit.
With `COc1cc(-c2ccc(C3CCc4ccc([C@H](C5CC5)[C@H](C)C(=O)O)cc4O3)c(CN(C)C(C)(C)C)c2)c(F)cn1` (single isomer, unassigned) [Example 125b], the midpoint of the response, the EC50, lay at 12 nM.

Take `COc1cc(-c2ccc(C3CCc4ccc([C@H](C5CC5)[C@H](C)C(=O)O)cc4O3)cc2CN(C(C)C)C(C)(C)C)ccn1` (stereo partly shown) [Example 237]: the response was half-maximal at 0.17 nM (EC50).

Take `CCN(CC)Cc1nc(C2CCc3ccc([C@H](C4CC4)[C@H](C)C(=O)O)cc3O2)ccc1-c1cc(OC)ncc1F` (single isomer, unassigned) [Example 88]: the EC50 is 6.7 nM.

`COc1cc(-c2ccc(C3CCc4ccc([C@H](C5CC5)[C@H](C)C(=O)O)cc4O3)cc2CN2CCC(C(N)=O)CC2)c(F)cn1` (stereo partly shown) [Example 272] yielded an EC50 of 278 nM.

Compound `COc1cc(-c2ccc(C3CCc4ccc([C@H](C5CC5)[C@H](C)C(=O)O)cc4O3)c(CN3CCCCC3(C)C)c2)ccn1` (mixture of isomers) [Example 117] had an EC50 of 0.6 nM.

Compound `COc1cc(-c2ccc(C3CCc4ccc([C@H](C5CC5)[C@H](C)C(=O)O)cc4O3)c(CN3CCCC[C@H]3C)c2)ccn1` (single isomer, unassigned) [Example 120a] had a half-maximal effective concentration (EC50) of 0.4 nM.

Take `COc1cc(-c2ccc(C3CCc4ccc([C@H](C5CC5)[C@H](C)C(=O)O)cc4O3)cc2CN2CCC3CC32)c(F)cn1` (single isomer, unassigned) [Example 256a]: a half-maximal response (EC50) required 0.6 nM.

Take `COc1cc(-c2ccc(C3CCc4ccc([C@H](C5CC5)[C@H](C)C(=O)O)cc4O3)cc2CN2CC3CC3C2)c(C#N)cn1` (single isomer, unassigned) [Example 192]: it took 0.3 nM to reach a half-maximal effect (EC50).

Regarding `CCN(CC)Cc1cc(C2CCc3ccc([C@H](C4CC4)[C@H](C)C(=O)O)cc3O2)ccc1-c1cc(OC)ncc1C#N` (mixture of isomers) [Example 197], the EC50 came out at 2.9 nM.

The compound `COc1cc(-c2ccc(C3CCc4ccc([C@H](C5CC5)[C@H](C)C(=O)O)cc4O3)cc2CN(C(C)C)C(C)C)c(C#N)cn1` (stereo partly shown) [Example 292] returned an EC50 of 0.1 nM.

With `COc1cc(-c2ccc(C3CCc4ccc([C@H](C5CC5)[C@H](C)C(=O)O)cc4O3)cc2CN2CCCC2)ccn1` (stereo partly shown) [Example 278], a half-maximal effect (EC50) was put at 19 nM.

In the case of `CCOc1cc(-c2ccc(C3CCc4ccc([C@H](C5CC5)[C@H](C)C(=O)O)cc4O3)c(CN(C)C(C)(C)C)c2)c(F)cn1` (single isomer, unassigned) [Example 132a], the midpoint of the response, the EC50, lay at 1.8 nM.

`CCOc1cc(-c2ccc(C3CCc4ccc([C@H](C5CC5)[C@H](C)C(=O)O)cc4O3)cc2CN(CC)CC)c(Cl)cn1` (single isomer, unassigned) [Example 214] had a concentration giving a half-maximal response (EC50) of 12 nM.

In turn, `COc1cc(-c2ccc(C3CCc4ccc([C@H](C5CC5)[C@H](C)C(=O)O)cc4O3)cc2CN2[C@H]3CC[C@@H]2CC3)ccn1` (stereo partly shown) [Example 289] came in with an EC50 of 72 nM.

With `COc1cc(-c2ccc(C3CCc4ccc([C@H](C5CC5)[C@H](C)C(=O)O)c(F)c4O3)cc2CN2CCC[C@@H]2C)c(F)cn1` (single isomer, unassigned) [Example 212], the EC50 was 3.1 nM.

`CCC1CCCN1Cc1cc(C2CCc3ccc([C@H](C4CC4)[C@H](C)C(=O)O)cc3O2)ccc1-c1cc(OC)ncc1F` (single isomer, unassigned) [Example 267a] gave an EC50 of 0.7 nM.

Compound `COc1cc(-c2ccc(C3CCc4ccc([C@H](C5CC5)[C@H](C)C(=O)O)cc4O3)cc2CN2[C@H](C)CCC[C@@H]2C)ccn1` (stereo partly shown) [Example 239] came in with an EC50 of 1.1 nM.

`COc1cc(-c2ccc(C3CCc4ccc([C@H](C5CC5)[C@H](C)C(=O)O)cc4O3)c(CN3CCCCC34CC4)c2)ccn1` (single isomer, unassigned) [Example 223] came in with a 50% effective concentration (EC50) of 0.05 nM.

The compound `CCN(Cc1cc(-c2cc(OC)ncc2F)ccc1C1CCc2ccc([C@H](C3CC3)[C@H](C)C(=O)O)cc2O1)C(C)C` (single isomer, unassigned) [Example 124a] came in with a half-maximal effective concentration (EC50) of 0.09 nM.
